In data set [1] the test system is MRC-5 cells (human fetal lung cells). Particulars: cited from earlier work.
Data set [2] concerns the target T1, Plasmodium falciparum thioredoxin reductase (PfTrxR) (Plasmodium falciparum, UniProt P61076).
T1 sequence (P61076 1-541 isoform P61076-2): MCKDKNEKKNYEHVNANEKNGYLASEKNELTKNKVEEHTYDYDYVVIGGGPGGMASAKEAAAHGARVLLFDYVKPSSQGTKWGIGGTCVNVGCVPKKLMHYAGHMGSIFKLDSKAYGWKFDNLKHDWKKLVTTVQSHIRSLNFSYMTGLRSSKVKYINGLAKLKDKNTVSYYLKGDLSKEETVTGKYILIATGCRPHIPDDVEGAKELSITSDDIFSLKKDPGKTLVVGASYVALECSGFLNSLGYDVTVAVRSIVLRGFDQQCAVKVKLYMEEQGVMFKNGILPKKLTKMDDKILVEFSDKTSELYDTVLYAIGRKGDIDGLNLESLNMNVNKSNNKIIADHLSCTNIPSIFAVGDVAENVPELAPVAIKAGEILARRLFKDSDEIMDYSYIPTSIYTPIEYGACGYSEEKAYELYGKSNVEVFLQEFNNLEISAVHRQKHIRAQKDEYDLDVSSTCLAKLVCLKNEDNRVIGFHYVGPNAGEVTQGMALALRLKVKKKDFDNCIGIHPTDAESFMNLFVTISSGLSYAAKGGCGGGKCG
The experiment in a line: biochemical. It counts as biochemical. The following applies: for IC50: cytosolic PfTrxR (PfTrxR 1 isoform), titrated 50 to 0.07 µM; for Hill slope of dose response curve against PfTrxR: Figure 2.

In another data set the test system is P. falciparum 3D7. The following applies: read-out: Pf(3D7) EC50, cited from earlier work.
The mark [3] stands for this setting: chloroquine sensitive, sulfadoxine resistant strain, MMV database ref 10.
Setting [4] is: read-out: MRC-5 Cells IC50, human fetal lung cells, cytotoxicity, MMV database ref 10.

Read-outs that look alike come from different tables or passages of the source.

As to `N.N.[Cl][Pt][Cl]` [Cisplatin, reference compound], the IC50 in data set [1] is 19600 nM.

In turn, `O=C1C(O)=C([C@H]2CC[C@H](c3ccc(Cl)cc3)CC2)C(=O)c2ccccc21` [Atovaquone, reference compound] registered an IC50 in data set [2] of over 10000 nM. The EC50 with P. falciparum 3D7 was 0.24 nM.

As for `CCN(CC)CCCC(C)Nc1ccnc2cc(Cl)ccc12` (centres unmarked) [Chloroquine, reference compound], the concentration for a half-maximal effect (EC50) in the data set on P. falciparum 3D7 (setting [3]) is 27.3 nM.

Consider `COc1ccccc1NC1=C(N2CCCCC2)C(=O)c2ccccc2C1=O` [Compound 2, 2-(2-methoxyanilino)-3-piperidin-1-ylnaphthalene-1,4-dione], for which, in data set [2], the “Hill slope of dose response curve against PfTrxR” value (shortened to “Hill slope of dose response curve”) amounted to 0.6031 and half-maximal inhibition (IC50) was put at 900 nM. The EC50 with P. falciparum 3D7 (setting [3]) was 5.3 nM. Further, the IC50 in data set [1] (setting [4]) is 68700 nM.

In the case of `CCCc1c(CC)c(=N)c2ccccc2n1C` [Compound 5, 3-ethyl-1-methyl-2-propylquinolin-4-imine;hydron;iodide], in data set [2], the “Hill slope of dose response curve” value came out at 1.1510. Further, the IC50 in data set [2] was 7500 nM; in data set [1] (setting [4]) it was 71200 nM. Besides, in the data set on P. falciparum 3D7 (setting [3]), the EC50 is 242 nM.

With `CCOc1cc2c(cc1OCC)C(c1cc(OC)c(O)cc1Cl)NCC2` (centres unmarked) [Compound 3, 5-chloro-4-(6,7-diethoxy-1,2,3,4-tetrahydroisoquinolin-1-yl)-2-methoxyphenol], in data set [2], the “Hill slope of dose response curve” value was 0.8022 and the half-maximal inhibitory concentration (IC50) came out at 6600 nM. In the data set on P. falciparum 3D7 (setting [3]), the EC50 was 370 nM. For the same compound, the IC50 in data set [1] (setting [4]) was 85400 nM.

`COc1ccc(-c2c(C)nn3c(N)c(C#N)cnc23)cc1OC` [Compound 4, 7-amino-3-(3,4-dimethoxyphenyl)-2-methylpyrazolo[1,5-a]pyrimidine-6-carbonitrile]: in data set [2], the “Hill slope of dose response curve” value is on record as 2.0020. Moreover, the EC50 with P. falciparum 3D7 (setting [3]) is 477 nM. Moreover, the IC50 in data set [1] (setting [4]) was over 100000 nM.

As for `CCc1c(C)c(=N)c2ccccc2n1C` [Compound 1, 2-ethyl-1,3-dimethylquinolin-4-imine;hydroiodide], in data set [2], the “Hill slope of dose response curve” value was 1.1420 and the IC50 came to 3500 nM. The EC50 with P. falciparum 3D7 (setting [3]) is 378 nM.

Consider `C[C@@H]1CC[C@H]2[C@@H](C)C(=O)O[C@@H]3O[C@@]4(C)CC[C@@H]1[C@]32OO4` [Artemisinin, reference compound], for which, in the data set with P. falciparum 3D7 (setting [3]), the EC50 was 20.7 nM.

A word on the IC50: it is the point on the concentration scale where inhibition reaches its midpoint. The EC50 is the concentration giving half of the maximal effect.

The record behind these values is publication PMC6273446, “Preliminary LC-MS Based Screening for Inhibitors of Plasmodium falciparum Thioredoxin Reductase (PfTrxR) among a Set of Antimalarials from the Malaria Box” (Molecules, 2016).
